Results from patent US20200268864A1, “CANCER VACCINE COMPOSITIONS AND METHODS FOR USING SAME TO TREAT CANCER” (Dana-Farber Cancer Institute, Inc., priority 2017, published 2020).
Entries after “also recorded” stand apart in the source; their conditions may differ.

Legend:
[1] = tested on: PBM tumor-bearing mice; experiment: Flow cytometry of peripheral blood and splenic immune cells; conditions: mouse, in vivo
Description: (§1) Tumors were first mechanically disrupted by chopping, then chemically digested in collagenase buffer (8 mL DMEM, 0.1 mL 1M HEPES, 0.5 mL FBS, 0.2 mL Pen/Strep, 1 m, 10× collagenase/hyaluronidase (Stemcell Technologies), 0.2 mL of 1 mg/mL DNase I (Stemcell Technologies) at 37° C. for 45 min. Single-cell suspensions of spleen and lymph nodes were obtained by mashed through a 70 um strainer using the plunger of a 3 mL or 5 mL syringe. Single cells suspensions were treated with red blood lysis buffer (4 mL NH4Cl+1 mL PBS with 2% calf serum) and washed with FACS buffer. Single cells suspensions were incubated with LIVE/DEAD Fixable Aqua Dead Cell Stain (Life Technologies, Cat # L34965) for 30 min and then blocked with anti-CD16/32 (BioLegend, clone 93) for 20 min on ice. Samples were then incubated with appropriate antibodies for 30 min. on ice. The Foxp3 staining buffer set (eBioscience, Cat #00-5523-00) was applied for intracellular markers staining. For the intracellular cytokine analysis, cells were stimulated with Leukocyte Activation Cocktail (BD Biosciences, Cat #550583) at 37° C. for 5 hours prior to FACS staining. The following antibodies were used in the experiments and were purchased from BioLegend unless otherwise indicated: CD45 (clone 30-F11), TCRβ (clone H57-597), CD4 (clone RM4-5), CD8 (clone 53-6.7), CD44 (clone IM7), CD62L (MEL-14), CD25 (PC61), IFNγ (clone XMG1.2), TNFα(clone MP6-XT22), PD-1 (clone 29F.1A12), Tim-3 (clone RMT3-23), LAG-3 (clone C9B7W), CD11b (clone M1/70), CD11c (clone […]), F4/80 (clone BM8), Gr-1 (clone RB6-BC5), Ly-6C (clone HK1.4), Ly-6G (clone 1A8), MHCII (clone M5/114.15.2), CD80 (clone 16-10A1), CD86 (clone GL-1), MHC1 (clone KH114). FoxP3 (clone FJK-16 s; eBioscience), Phospho-IRF-3 (Ser396) (clone D6O1M, Cell signaling technology), Phospho-TBK1/NAK (Ser172) (clone D52C2, Cell signaling technology), and LIVE/DEAD® Fixable Aqua Dead Cell Stain Kit (Life Technologies Cat L34965). Flow cytometry was performed on an LSR II (BD Biosciences) or LSRFortessa™ HTS (BD Biosciences) at the DFCI flow cytometry core facility, and all the data were analyzed using FlowJo software.

[2] = tested on: STING pathway in PBM tumors; experiment: STING pathway activation in PBM tumors (p-TBK1/p-IRF3 flow cytometry, IFN-β/CXCL10 RT-qPCR); type: in vivo, mouse; conditions: for phosphorylation of TBK1 and IRF3 in intratumoral DCs and macrophages: PBM tumors
Description: as §1, with “FoxP3 (clone FJK-16 s; eBioscience), Phospho-IRF-3 (Ser396) (clone D6O1M, Cell signaling technology), Phospho-TBK1/NAK (Ser172) (clone D52C2, Cell signaling technology), and LIVE/DEAD® Fixable Aqua Dead Cell Stain Kit (Life Technologies Cat L34965).” left out, “software. […]” for “software.”

[3] = tested on: human DCs co-cultured with UWB1.289; experiment: Co-culture of human DCs with olaparib-treated UWB1.289 cells; type: cell-based; conditions: BRCA1-deficient UWB1.289
Description: Bone marrow cells were isolated from FVB/NJ mice and cultured in RPMI-1640 containing 10% FBS and 20 ng/ml GM-CSF. BMDCs (bone marrow derived dendritic cells) were harvested for in vitro co-culture assay on day 7 to day 10. About 3×10^5 PBM or PPM tumor cells were cultured in a 6-well plate for 24 hr. and then treated with DMSO or olaparib. After 24 hr incubation with DMSO, olaparib, or olaparib in combination with other drugs (cell cycle inhibitor or apoptosis inhibitor), drugs were removed and tumor cells were washed twice with PBS. BMDCs were added and co-cultured with PBM or PPM cells at a ratio of 1:1 in 1.5 ml culture media in the presence of GM-CSF (20 ng/ml) and lipofectamine (2 μl) for 24 hr. Co-cultured cells were harvested for flow cytometry analysis and floating cells (percentage of BMDCs is about 90%), or RNA analysis. Cell culture supernatants were collected for detection of IFN-β with the ELISA kit. BMDCs generated from C57BL/6J mice were applied for the coculture of BMDCs with ID8 tumor cells. Human dendritic cells purchased from Lonza were used for the coculture of human DCs with DMSO or olaparib-treated human ovarian cancer cells ([…] and UWB1.289+BRCA1).

[4] = tested on: STING pathway in BMDCs co-cultured with ID8 cells; experiment: Co-culture of BMDCs with drug-treated WT or Brca1-null ID8 cells; type: cell-based, mouse; conditions: co-cultured with drug-treated Brca1-null ID8 cells
Description: Brca-1 deficient ID8 cells were generated using a CRISPR double nickase plasmid. ID8 cells cultured in a 6-well plate were transfected with 2 μg/well of BRCA1 double nickase plasmid (sc419362-NIC, Santa Cruz Biotechnology) or control double nickase plasmid (SC-437281, Santa Cruz Biotechnology) using lipofectamine 3000 (Invitrogen). 48 hrs post-transfection, cells were passaged onto a 10 cm plate. After 24 h, puromycin (3 μg/mL) was added to the culture for selection. Puromycin resistant cells were selected and expanded. Due to a lack of a reliable mouse BRCA1 antibody for Western blot, cells were analyzed by DNA sequencing to confirm the disruption of functional Brca1 allele. To generate ID8 tumors, cultured ID8 cells were harvested and resuspended in serum free DMEM. Cells were then mixed with Matrigel (Corning). A total volume of 0.1 ml containing 5×10^6 ID8 cells and 40% Matrigel were injected subcutaneously into the flank of C57BL/6J mice.
Bone marrow cells were isolated from FVB/NJ mice and cultured in RPMI-1640 containing 10% FBS and 20 ng/ml GM-CSF. BMDCs (bone marrow derived dendritic cells) were harvested for in vitro co-culture assay on day 7 to day 10. About 3×10^5 PBM or PPM tumor cells were cultured in a 6-well plate for 24 hr. and then treated with DMSO or olaparib. […]

[5] = tested on: PD-L1 on PBM tumor cells; experiment: PD-L1 expression on PBM tumor cells (RT-qPCR, flow cytometry); parameters: species or system mouse; conditions: PBM tumors in vivo and cultured PBM cells
Description: Tumors were first mechanically disrupted by chopping, then chemically digested in collagenase buffer (8 mL DMEM, 0.1 mL 1M HEPES, 0.5 mL FBS, 0.2 mL Pen/Strep, 1 m, 10× collagenase/hyaluronidase (Stemcell Technologies), 0.2 mL of 1 mg/mL DNase I (Stemcell Technologies) at 37° C. for 45 min. Single-cell suspensions of spleen and lymph nodes were obtained by mashed through a 70 um strainer using the plunger of a 3 mL or 5 mL syringe. Single cells suspensions were treated with red blood lysis buffer (4 mL NH4Cl+1 mL PBS with 2% calf serum) and washed with FACS buffer. Single cells suspensions were incubated with LIVE/DEAD Fixable Aqua Dead Cell Stain (Life Technologies, Cat # L34965) for 30 min and then blocked with anti-CD16/32 (BioLegend, clone 93) for 20 min on ice. Samples were then incubated with appropriate antibodies for 30 min. on ice. The Foxp3 staining buffer set (eBioscience, Cat #00-5523-00) was applied for intracellular markers staining. For the intracellular cytokine analysis, cells were stimulated with Leukocyte Activation Cocktail (BD Biosciences, Cat #550583) at 37° C. for 5 hours prior to FACS staining. […] Flow cytometry was performed on an LSR II (BD Biosciences) or LSRFortessa™ HTS (BD Biosciences) at the DFCI flow cytometry core facility, and all the data were analyzed using FlowJo software. […]

[6] = tested on: PBM cells; experiment: Cell death of PBM cells in culture; type: cell-based, mouse; conditions: 2.5 uM for 24 hours

O=C(c1cc(Cc2n[nH]c(=O)c3ccccc23)ccc1F)N1CCN(C(=O)C2CC2)CC1 [olaparib, Olaparib]
IFN gamma and TNF alpha production by peripheral blood CD8+ T cells [1]: enhanced
expression of PD-1, Tim3, and Lag3 co-inhibitory receptors on splenic CD8+ T cells [1]: reduced
gMDSC and mMDSC in the peripheral blood [1]: decreased
number of CD8+ T cells in the spleens [1]: significantly increased
number of MDSCs in the spleens [1]: significantly reduced
phosphorylation of TBK1 and IRF3 in intratumoral DCs and macrophages [2]: increased pTBK1+p-IRF3+
phosphorylation of TBK1 and IRF3 in intratumoral DCs and macrophages ([2]; listed as Olaparib): increased phosphorylation
IFN-β and CXCL10 expression in PBM tumor tissues ([2]; RT-qPCR): induction; also recorded: Increased expression
levels of p-TBK1+p-IRF3+ and IFN-β in human DCs [3]: Increased levels
p-TBK1+p-IRF3+ and IFN-β (STING pathway activation) in wild-type BMDCs [4]: Increased; also recorded: activation of STING pathway occurred
expression of immune-inhibitory ligand PD-L1 on tumor cells [5]: highly enhanced expression; also recorded: significantly increased expression
cell death in PBM cells [6]: did not induce substantial cell death
